Source: patent US20240124460A1, “METHODS AND COMPOSITIONS FOR TARGETED PROTEIN DEGRADATION” (Ranok Therapeutics (Hangzhou) Co. Ltd., priority 2020, published 2024)
Read-outs that look alike come from different tables or passages of the source.

Experiments:
[1] = test system: MV-4-11 human acute myeloid leukemia; assay: MV-4-11 CCK-8 proliferation assay; assay type: cell-based; conditions: Homo sapiens, MV4-11; MV-4-11 cells, 72 hr
Method: (§1) The following cancer cell lines were employed: A549 human lung carcinoma (ATCC, #CCL-185); BT-474 human breast carcinoma (ATCC, #HTB-20); MDA-MB-231 human breast adenocarcinoma (ATCC, #CRM−HTB-26); MDA-MB-468 human breast adenocarcinoma (ATCC, #HTB-132); MV-4-11 human acute myeloid leukemia (ATCC, #CRL-9591); and U-87 MG human glioblastoma (ATCC, #HTB-14). Cell lines were cultured essentially according to ATCC recommendations.
(§2) 3-fold serial dilutions of each test compound were prepared ranging from 20 μM to 1.02 nM.
(§3) % Inhibition=100−(D−B)/(S−B)*100%. • S: Absorbance of cells treated with DMSO • D: Absorbance of compound-treated cells • B: Absorbance of medium with DMSO without cells

[2] = test system: U-87 MG human glioblastoma; assay: U87 MG CCK-8 proliferation assay; assay type: cell-based; conditions: Homo sapiens, U-87 MG cells, read-out: U87MG CCK-8
Method: as §1, §2, §3

SMILES	EC50 [1] [nM]	EC50 ([2]; U-87 MG, 72 h) [nM]	EC50 ([2]; 72 hr) [nM]
CCOc1cc(N2CCC(C(=O)N3CCN(Cc4ccc(-n5c(C(=O)NCCN6CCN(C)CC6)nnc5-c5cc(C(C)C)c(O)cc5O)cc4)CC3)CC2)ccc1Nc1ncc2c(n1)N(C)c1ccccc1C(=O)N2C [Compound 167, 5-(2,4-dihydroxy-5-isopropylphenyl)-4-(4-((4-(1-(4-((5,11-dimethyl-6-oxo-6,11-dihydro-5H-benzo[e]pyrimido[5,4-b][1,4]diazepin-2-yl)amino)-3-ethoxyphenyl)piperidine-4-carbonyl)piperazin-1-yl)methyl)phenyl)-N-(2-(4-methylpiperazin-1-yl)ethyl)-4H-1,2,4-triazole-3-carboxamide]	< 100	< 100	
CCOc1cc(N2CCC(C(=O)NCc3ccc(CN(C)Cc4ccc(-n5c(O)nnc5-c5cc(C(C)C)c(O)cc5O)cc4)cc3)CC2)ccc1Nc1ncc2c(n1)N(S(C)(=O)=O)c1ccccc1C(=O)N2C [Compound 170, N-(4-(((4-(3-(2,4-dihydroxy-5-isopropylphenyl)-5-hydroxy-4H-1,2,4-triazol-4-yl)benzyl)(methyl)amino)methyl)benzyl)-1-(3-ethoxy-4-((5-methyl-11-(methylsulfonyl)-6-oxo-6,11-dihydro-5H-benzo[e]pyrimido[5,4-b][1,4]diazepin-2-yl)amino)phenyl)piperidine-4-carboxamide]	< 100	< 100	
CCNC(=O)c1nnc(-c2cc(CC)c(O)cc2OC)n1-c1ccc(CN2CCN(CC3CCN(C(=O)C4CCN(c5ccc(Nc6ncc7c(n6)N(S(C)(=O)=O)c6ccccc6C(=O)N7C)c(OCC)c5)CC4)CC3)CC2)cc1 [Compound 171, 4-(4-((4-((1-(1-(3-ethoxy-4-((5-methyl-11-(methylsulfonyl)-6-oxo-6,11-dihydro-5H-benzo[e]pyrimido[5,4-b][1,4]diazepin-2-yl)amino)phenyl)piperidine-4-carbonyl)piperidin-4-yl)methyl)piperazin-1-yl)methyl)phenyl)-N-ethyl-5-(5-ethyl-4-hydroxy-2-methoxyphenyl)-4H-1,2,4-triazole-3-carboxamide]	> 1000	> 1000	
CCOc1cc(N2CCC(C(=O)N3CCN(Cc4ccc(-n5c(C(=O)NCCN6CCN(S(C)(=O)=O)CC6)nnc5-c5cc(C(C)C)c(O)cc5O)cc4)CC3)CC2)ccc1Nc1ncc2c(n1)N(C)c1ccccc1C(=O)N2C [Compound 172, 5-(2,4-dihydroxy-5-isopropylphenyl)-4-(4-((4-(1-(4-((5,11-dimethyl-6-oxo-6,11-dihydro-5H-benzo[e]pyrimido[5,4-b][1,4]diazepin-2-yl)amino)-3-ethoxyphenyl)piperidine-4-carbonyl)piperazin-1-yl)methyl)phenyl)-N-(2-(4-(methylsulfonyl)piperazin-1-yl)ethyl)-4H-1,2,4-triazole-3-carboxamide]	< 100	< 100	
CCOc1cc(N2CCC(C(=O)N3CCN(Cc4ccc(-n5c(C(=O)NCC(F)(F)C(F)(F)F)nnc5-c5cc(C(C)C)c(O)cc5O)cc4)CC3)CC2)ccc1Nc1ncc2c(n1)N(C)c1ccccc1C(=O)N2C [Compound 173, 5-(2,4-dihydroxy-5-isopropylphenyl)-4-(4-((4-(1-(4-((5,11-dimethyl-6-oxo-6,11-dihydro-5H-benzo[e]pyrimido[5,4-b][1,4]diazepin-2-yl)amino)-3-ethoxyphenyl)piperidine-4-carbonyl)piperazin-1-yl)methyl)phenyl)-N-(2,2,3,3,3-pentafluoropropyl)-4H-1,2,4-triazole-3-carboxamide]	< 100	< 100	
CCOc1cc(N2CCC(C(=O)N3CCN(Cc4ccc(-n5c(O)nnc5-c5cc(C(C)C)c(OP(=O)(O)O)cc5O)cc4)CC3)CC2)ccc1Nc1ncc2c(n1)N(C)c1ccccc1C(=O)N2C [Compound 180, 4-(4-(4-((4-(1-(4-((5,11-dimethyl-6-oxo-6,11-dihydro-5H-benzo[e]pyrimido[5,4-b][1,4]diazepin-2-yl)amino)-3-ethoxyphenyl)piperidine-4-carbonyl)piperazin-1-yl)methyl)phenyl)-5-hydroxy-4H-1,2,4-triazol-3-yl)-5-hydroxy-2-isopropylphenyl dihydrogen phosphate]	< 100		< 100

Continued, in another order:

EC50 [1] [nM]	EC50 ([2]; U-87 MG, 72 h) [nM]	SMILES	EC50 ([2]; 72 hr) [nM]
< 100	< 100	CCOc1cc(N2CCC(C(=O)N3CCN(Cc4ccc(-n5c(C(=O)NCCN6CCN(S(C)(=O)=O)CC6)nnc5-c5cc(C(C)C)c(O)cc5O)cc4)CC3)CC2)ccc1Nc1ncc2c(n1)N(S(C)(=O)=O)c1ccccc1C(=O)N2C [Compound 174, 5-(2,4-dihydroxy-5-isopropylphenyl)-4-(4-((4-(1-(3-ethoxy-4-((5-methyl-11-(methylsulfonyl)-6-oxo-6,11-dihydro-5H-benzo[e]pyrimido[5,4-b][1,4]diazepin-2-yl)amino)phenyl)piperidine-4-carbonyl)piperazin-1-yl)methyl)phenyl)-N-(2-(4-(methylsulfonyl)piperazin-1-yl)ethyl)-4H-1,2,4-triazole-3-carboxamide]	
< 100	< 100	CCOc1cc(N2CCC(C(=O)N3CCN(Cc4ccc(-n5c(C(=O)NCC(F)(F)C(F)(F)F)nnc5-c5cc(C(C)C)c(O)cc5O)cc4)CC3)CC2)ccc1Nc1ncc2c(n1)N(S(C)(=O)=O)c1ccccc1C(=O)N2C [Compound 175, 5-(2,4-dihydroxy-5-isopropylphenyl)-4-(4-((4-(1-(3-ethoxy-4-((5-methyl-11-(methylsulfonyl)-6-oxo-6,11-dihydro-5H-benzo[e]pyrimido[5,4-b][1,4]diazepin-2-yl)amino)phenyl)piperidine-4-carbonyl)piperazin-1-yl)methyl)phenyl)-N-(2,2,3,3,3-pentafluoropropyl)-4H-1,2,4-triazole-3-carboxamide]	
< 100	< 100	CCOc1cc(N2CCC(CN3CCN(Cc4ccc(-n5c(C(=O)NCC(F)(F)F)nnc5-c5cc(C(C)C)c(O)cc5O)cc4)CC3)CC2)ccc1Nc1ncc2c(n1)N(S(C)(=O)=O)c1ccccc1C(=O)N2C [Compound 178, 5-(2,4-dihydroxy-5-isopropylphenyl)-4-(4-((4-((1-(3-ethoxy-4-((5-methyl-11-(methylsulfonyl)-6-oxo-6,11-dihydro-5H-benzo[e]pyrimido[5,4-b][1,4]diazepin-2-yl)amino)phenyl)piperidin-4-yl)methyl)piperazin-1-yl)methyl)phenyl)-N-(2,2,2-trifluoroethyl)-4H-1,2,4-triazole-3-carboxamide]	
< 100	< 100	CCOc1cc(N2CCC(CN3CCC(CN4CCN(Cc5ccc(-n6c(C(=O)NC(C)C(F)(F)F)nnc6-c6cc(CC)c(O)cc6O)cc5)CC4)CC3)CC2)ccc1Nc1ncc2c(n1)N(S(C)(=O)=O)c1ccccc1C(=O)N2C (centres unmarked) [Compound 179, 4-(4-((4-((1-((1-(3-ethoxy-4-((5-methyl-11-(methylsulfonyl)-6-oxo-6,11-dihydro-5H-benzo[e]pyrimido[5,4-b][1,4]diazepin-2-yl)amino)phenyl)piperidin-4-yl)methyl)piperidin-4-yl)methyl)piperazin-1-yl)methyl)phenyl)-5-(5-ethyl-2,4-dihydroxyphenyl)-N-(1,1,1-trifluoropropan-2-yl)-4H-1,2,4-triazole-3-carboxamide 2,2,2-trifluoroacetate]	
< 100	100 to 1000	CCOc1cc(N2CCC(CN3CCC(CN4CCN(Cc5ccc(-n6c(C(=O)NC(C)C(F)(F)F)nnc6-c6cc(C(C)C)c(O)cc6O)cc5)CC4)CC3)CC2)ccc1Nc1ncc2c(n1)N(S(C)(=O)=O)c1ccccc1C(=O)N2C (centres unmarked) [Compound 181, 5-(2,4-dihydroxy-5-isopropylphenyl)-4-(4-((4-((1-((1-(3-ethoxy-4-((5-methyl-11-(methylsulfonyl)-6-oxo-6,11-dihydro-5H-benzo[e]pyrimido[5,4-b][1,4]diazepin-2-yl)amino)phenyl)piperidin-4-yl)methyl)piperidin-4-yl)methyl)piperazin-1-yl)methyl)phenyl)-N-(1,1,1-trifluoropropan-2-yl)-4H-1,2,4-triazole-3-carboxamide]	
< 100	100 to 1000	CCOc1cc(N2CCC(CN3CC4(CCN(Cc5ccc(-n6c(O)nnc6-c6cc(C(C)C)c(O)cc6O)cc5)CC4)C3)CC2)ccc1Nc1ncc2c(n1)N(S(C)(=O)=O)c1ccccc1C(=O)N2C [Compound 183, 2-((4-(4-((7-(4-(3-(2,4-dihydroxy-5-isopropylphenyl)-5-hydroxy-4H-1,2,4-triazol-4-yl)benzyl)-2,7-diazaspiro[3.5]nonan-2-yl)methyl)piperidin-1-yl)-2-ethoxyphenyl)amino)-5-methyl-11-(methylsulfonyl)-5,11-dihydro-6H-benzo[e]pyrimido[5,4-b][1,4]diazepin-6-one]	
< 100	100 to 1000	CCOc1cc(N2CCC(CN3CCC4(CC3)CN(Cc3ccc(-n5c(O)nnc5-c5cc(C(C)C)c(O)cc5O)cc3)C4)CC2)ccc1Nc1ncc2c(n1)N(S(C)(=O)=O)c1ccccc1C(=O)N2C [Compound 184, 2-((4-(4-((2-(4-(3-(2,4-dihydroxy-5-isopropylphenyl)-5-hydroxy-4H-1,2,4-triazol-4-yl)benzyl)-2,7-diazaspiro[3.5]nonan-7-yl)methyl)piperidin-1-yl)-2-ethoxyphenyl)amino)-5-methyl-11-(methylsulfonyl)-5,11-dihydro-6H-benzo[e]pyrimido[5,4-b][1,4]diazepin-6-one]	
